# Source: US7541478B2, “Coumarin derivative and use thereof” (Takeda Pharmaceutical Company Limited, priority 2004, dated 2009)
# Columns and labels:
# [1] = Oral absorbability: blood level of Compound X after oral administration to rabbits; type: in vivo; settings: male New Zealand white rabbits (n=3), 0.5% methylcellulose suspension, 10 mg/kg in terms of Compound X, blood level of Compound X measured
# Procedure: [Method] Male New Zealand white rabbits (n=3) were forced to take Compound A, B or X orally (0.5% suspension in methylcellulose, the dose was 10 mg/kg in terms of Compound X). A blood level of Compound X was measured with time to determine the maximum blood level (Cmax) and time required for reaching the maximum blood level (Tmax). Compound X:(2E)-3-{3-[7-chloro-3-(2-{[4-fluoro-2-(trifluoromethyl)phenyl]amino}-2-oxoethyl)-6-methyl-2-oxo-2H-chromen-4yl]phenyl}acrylic acid described in International Publication WO02/06264.
# [2] = target: T1, mouse abdominal macrophage microsome ACAT (Mus musculus, UniProt Q61263); assay: ACAT inhibitory activity (3H-oleyl-CoA, cholesteryl ester formation); type: biochemical; settings: microsome from thioglycolate-stimulated C57BL6J mouse macrophage; pre-incubated 37° C. 10 minutes, reaction 37° C. 20 minutes; read-out: IC50 (ACAT inhibiting rate 50%)
# T1 construct: then ultracentrifuged (4° C., 50,000 rpm, 90 minutes) to prepare a microsome; from tissue; host or cells: abdominal (peritoneal) macrophages of thioglycolate-stimulated C57BL6J mice, cultured 24 h with rabbit beta-VLDL; microsomal fraction
# T1 sequence (Q61263 1-540): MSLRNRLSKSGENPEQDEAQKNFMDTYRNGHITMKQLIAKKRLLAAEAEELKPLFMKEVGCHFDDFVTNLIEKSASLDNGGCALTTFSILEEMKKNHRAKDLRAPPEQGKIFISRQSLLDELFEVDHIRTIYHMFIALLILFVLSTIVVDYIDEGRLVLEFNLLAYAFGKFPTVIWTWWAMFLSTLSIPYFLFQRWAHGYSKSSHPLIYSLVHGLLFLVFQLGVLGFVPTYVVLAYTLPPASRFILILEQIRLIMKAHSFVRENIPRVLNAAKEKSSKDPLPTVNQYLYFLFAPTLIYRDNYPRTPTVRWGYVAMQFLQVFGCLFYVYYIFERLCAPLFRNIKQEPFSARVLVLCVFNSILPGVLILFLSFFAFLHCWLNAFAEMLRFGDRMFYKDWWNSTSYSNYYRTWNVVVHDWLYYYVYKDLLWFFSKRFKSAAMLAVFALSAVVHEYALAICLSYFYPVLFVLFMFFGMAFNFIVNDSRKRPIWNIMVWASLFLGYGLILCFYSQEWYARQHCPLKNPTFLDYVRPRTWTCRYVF
# Procedure: According to the method of Hakamada et al. (Experimental Medicine Supplement vol. 14, No. 12, Circulation Research Protocol, p, 49-52, 1996), an abdominal macrophage was taken from a thioglycolate-stimulated C57BL6J mouse and cultured for 24 hours in a RPMI 1640-25 mM HEPES (pH7.0) medium containing rabbit β-very low density lipoprotein (β-VLDL, 150 μg cholesterol/ml) which had been prepared by the method of Ishii et al. (Ishii I et al., Arterioscler, Thromb., 12, 1139-1145, 1992). The abdominal macrophage was then collected by centrifugation (4° C., 1.000 rpm, 5 minutes) and sonicated. The sonicated liquid was centrifuged (4° C., 5000 rpm, 15 minutes) and then ultracentrifuged (4° C., 50,000 rpm, 90 minutes) to prepare a microsome. The microsome thus obtained was used for measuring ACAT inhibitory activity of a test compound as mouse abdominal macrophage microsome ACAT.
# A mixture of a test compound, cholesterol-albumin-containing-Tris-HCL buffer (pH 7.5) and mouse abdominal macrophage microsome ACAT was pre-incubated at 37° C. for 10 minutes, and ^3H-oleyl-CoA was added to react at 37° C. for 20 minutes. […] The extract was subjected to silica gel thin chromatography (petroleum ether:diethyl ether:acetic acid=9:1:0.1 v/v), and the resulting ^3H-CE fraction was measured with a scintillation counter. […]
substance,measurement,setting,value
monocalcium bis((2E)-3-[3-[7-chloro-3-(2-[[4-fluoro-2-(trifluoromethyl)phenyl]amino]-2-oxoethyl)-6-methyl-2-oxo-2H-chromen-4-yl]phenyl]acrylate) trihydrate [Compound A],Cmax (maximum blood level of Compound X),[1],132 ± 29 ng/mL
same,Tmax (time required for reaching the maximum blood level),[1],40.2 ± 17.4 min
same,IC50,[2],1.96 µM
